# From US9776962B2, “Aromatic compounds with GPR40 agonistic activity” (TAKEDA PHARMACEUTICAL COMPANY LIMITED, priority 2013, dated 2017)
# Biological target: T1, human GPR40 (Homo sapiens, UniProt O14842)
# T1 construct: expressed in transfected cells
# Test: Evaluation of human GPR40 agonist activity with increase in intracellular Ca2+ concentration as an index (FLIPR)
# Format: cell-based
# Details: test compound 1 μM; CHO(dhfr−) cells stably expressing human GPR40; 100% = 10 μM compound of Example 153, 0% = DMSO
# Method: Plasmid hGPR40/pAKKO-1.11H for mammalian cells expression, wherein cDNA fragment (SEQ ID NO: 1) encoding the full-length human GPR40 was incorporated into an expression vector pAKKO-1.11H (Biochimica et Biophysica Acta vol. 1219 pp. 251-259 (1994)), was transfected into CHO-dhfr(−) cells (ATCC, CRL-9096) by using Lipofectamine 2000 (Invitrogen:11668-019). After transfection, the limiting dilution-culture method was performed to select clone in selection medium (nucleic acid-free α-MEM (Invitrogen:12561-056)) containing 10% dialyzed bovine serum (Invitrogen:26400-044)). The expression level of human GPR40 mRNA was confirmed by TaqMan PCR (Life Technologies), and the intracellular calcium mobilization activity of GPR40 ligand (γ-linolenic acid) was confirmed by FLIPR (Molecular Devices), and a clone of human GPR40 expressing CHO cells was selected.
# Evaluation of Human GPR40 Agonist Activity with Increase in Intracellular Ca^2+ Concentration as an Index
# CHO(dhfr−) cells that stably expressed human GPR40 were suspended in MEMα (Nikken Bio Medical Laboratory) containing 10% dialyzed bovine serum (JR Scientific), 10 mM HEPES (Life Technologies), 100 U/mL penicillin, 100 μg/mL streptomycin (Life Technologies), and plated on a 384 well black/clear cell culture plate at 10,000 cells/well. After culture overnight in a CO2 incubator at 37° C., the culture supernatant was removed, and loading buffer [Ca^2+ probe attached to Calcium Kit II-iCellux (DOJINDO) was dissolved in assay buffer (20 mM HEPES, 0.1% fatty acid-free BSA (Sigma-Aldrich), 2.5 mM probenecid (DOJINDO)-containing HESS (Life Technologies))] was added at 30 μL/well. After leaving for 1 hr at room temperature under light shielding, assay buffer containing the test compound at a final concentration of 1 μM was added at 10 μL/well in FLIPR Tetra (Molecular Devices), and the fluorescence amount was successively measured. Human GPR40 agonist activity calculated using an increase in the intracellular Ca^2+ concentration as an index, wherein the activity of 10 μM of the compound of Example 153 was 100%, and the activity when DMSO was added instead of the test compound was 0%.
# T1 sequence (O14842 whole entry): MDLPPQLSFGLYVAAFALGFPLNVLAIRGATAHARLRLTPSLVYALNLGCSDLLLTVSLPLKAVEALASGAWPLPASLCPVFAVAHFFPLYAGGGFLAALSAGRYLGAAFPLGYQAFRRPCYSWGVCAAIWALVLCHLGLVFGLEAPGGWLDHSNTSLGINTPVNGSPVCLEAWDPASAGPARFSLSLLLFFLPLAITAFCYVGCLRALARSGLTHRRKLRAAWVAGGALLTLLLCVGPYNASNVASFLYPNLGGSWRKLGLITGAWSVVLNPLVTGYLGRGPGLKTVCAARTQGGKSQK
row,activation at 1 µM,SMILES
1,95%,"COc1ccc(C(=O)N(CC2CC2)c2ccccn2)c(N2CCC(COc3cc(C(CC(=O)O)C4CC4)ccn3)CC2)c1 (stereo not shown) [Example 117, 3-cyclopropyl-3-(2-((1-(2-((cyclopropylmethyl)(pyridin-2-yl)carbamoyl)-5-methoxyphenyl)piperidin-4-yl)methoxy)pyridin-4-yl)propanoic acid]"
2,96%,"COc1ccc(C(=O)N(CC(F)F)c2cc(C)ccn2)c(N2CCC(COc3cc(C(CC(=O)O)C4CC4)ccn3)CC2)c1 (stereo not shown) [Example 157, 3-cyclopropyl-3-(2-((1-(2-((2,2-difluoroethyl)(4-methylpyridin-2-yl)carbamoyl)-5-methoxyphenyl)piperidin-4-yl)methoxy)pyridin-4-yl)propanoic acid]"
3,82%,"COc1ncc(C(=O)N(CC(C)(C)C)c2cccc(C)n2)c(N2CCC(COc3cc(C(CC(=O)O)C4CC4)ccn3)CC2)n1 (stereo not shown) [Example 287, 3-cyclopropyl-3-(2-((1-(5-((2,2-dimethylpropyl) (6-methylpyridin-2-yl)carbamoyl)-2-methoxypyrimidin-4-yl)piperidin-4-yl)methoxy)pyridin-4-yl)propanoic acid]"
4,98%,"COc1cc(N2CCC(COc3cc(C(CC(=O)O)C4CC4)ccn3)CC2)c(C(=O)N(CC(C)(C)C)c2cc(C)ncn2)cn1 (stereo not shown) [Example 257, 3-cyclopropyl-3-(2-((1-(5-((2,2-dimethylpropyl)(6-methylpyrimidin-4-yl)carbamoyl)-2-methoxypyridin-4-yl)piperidin-4-yl)methoxy)pyridin-4-yl)propanoic acid]"
5,94%,"Cc1cccc(N(CC(C)(C)C)C(=O)c2ccc(Cl)cc2N2CCC(COc3cc(C(CC(=O)O)C4CC4)ccn3)CC2)n1 (stereo not shown) [Example 266, 3-(2-((1-(5-chloro-2-((2,2-dimethylpropyl)(6-methylpyridin-2-yl)carbamoyl)phenyl)piperidin-4-yl)methoxy)pyridin-4-yl)-3-cyclopropylpropanoic acid]"
6,93%,"COc1ccc(C(=O)Nc2ccccn2)c(N2CCC(COc3cc(C(CC(=O)O)C4CC4)ccn3)CC2)c1 (stereo not shown) [Example 242, 3-cyclopropyl-3-(2-((1-(5-methoxy-2-(pyridin-2-ylcarbamoyl)phenyl)piperidin-4-yl)methoxy)pyridin-4-yl)propanoic acid]"
7,95%,"CCOC(CC(=O)O)c1cccc(OCC2CCN(c3cc(OC)ccc3C(=O)N(CC(C)(C)C)c3cccc(C)n3)CC2)c1 (stereo not shown) [Example 270, 3-(3-((1-(2-((2,2-dimethylpropyl)(6-methylpyridin-2-yl)carbamoyl)-5-methoxyphenyl)piperidin-4-yl)methoxy)phenyl)-3-ethoxypropanoic acid]"
8,84%,"COc1ccc(C(=O)N(CC(C)C)c2ncccc2C)c(N2CCC(COc3cc(C(CC(=O)O)C4CC4)ccn3)CC2)c1 (stereo not shown) [Example 150, 3-cyclopropyl-3-(2-((1-(5-methoxy-2-((2-methylpropyl)(3-methylpyridin-2-yl)carbamoyl)phenyl)piperidin-4-yl)methoxy)pyridin-4-yl)propanoic acid]"
9,96%,"COCC(C)(C)CN(C(=O)c1ccc(OC)cc1N1CCC(COc2cc(C(CC(=O)O)C3CC3)ccn2)CC1)c1ccccn1 (stereo not shown) [Example 155, 3-cyclopropyl-3-(2-((1-(5-methoxy-2-((3-methoxy-2,2-dimethylpropyl)(pyridin-2-yl)carbamoyl)phenyl)piperidin-4-yl)methoxy)pyridin-4-yl)propanoic acid]"
10,94%,"COc1ccc(C(=O)N(CC(C)(C)C)C2CCCC2)c(N2CCC(COc3cc(C(CC(=O)O)C4CC4)ccn3)CC2)c1 (stereo not shown) [Example 198, 3-(2-((1-(2-(cyclopentyl(2,2-dimethylpropyl)carbamoyl)-5-methoxyphenyl)piperidin-4-yl)methoxy)pyridin-4-yl)-3-cyclopropylpropanoic acid]"
11,89%,"COc1ccc(C(=O)N(CC(F)(F)F)c2ccnc(C)c2)c(N2CCC(COc3cc(C(CC(=O)O)C4CC4)ccn3)CC2)c1 (stereo not shown) [Example 163, 3-cyclopropyl-3-(2-((1-(5-methoxy-2-((2-methylpyridin-4-yl)(2,2,2-trifluoroethyl)carbamoyl)phenyl)piperidin-4-yl)methoxy)pyridin-4-yl)propanoic acid]"
12,102%,"COc1ccc(C(=O)N(CC(F)(F)C(F)F)c2ccccn2)c(N2CCC(COc3cc(C(CC(=O)O)C4CC4)ccn3)CC2)c1 (stereo not shown) [Example 138, 3-cyclopropyl-3-(2-((1-(5-methoxy-2-(pyridin-2-yl(2,2,3,3-tetrafluoropropyl)carbamoyl)phenyl)piperidin-4-yl)methoxy)pyridin-4-yl)propanoic acid]"
13,96%,"COc1ccc(C(=O)N(CC2CC2(F)F)c2ccccn2)c(N2CCC(COc3cc(C(CC(=O)O)C4CC4)ccn3)CC2)c1 (stereo not shown) [Example 139, 3-cyclopropyl-3-(2-((1-(2-(((2,2-difluorocyclopropyl)methyl)(pyridin-2-yl)carbamoyl)-5-methoxyphenyl)piperidin-4-yl)methoxy)pyridin-4-yl)propanoic acid]"
14,95%,"CCOC(CC(=O)O)c1ccnc(OCC2CCN(c3cc(OC)ccc3C(=O)N(CC(C)(C)C)c3cccc(C)n3)CC2)c1 (stereo not shown) [Example 272, 3-(2-((1-(2-((2,2-dimethylpropyl)(6-methylpyridin-2-yl)carbamoyl)-5-methoxyphenyl)piperidin-4-yl)methoxy)pyridin-4-yl)-3-ethoxypropanoic acid]"
15,104%,"COc1ccc(C(=O)N(CC(C)(C)C)c2nc(C)cc(C)n2)c(N2CCC(COc3cc(C(CC(=O)O)C4CC4)ccn3)CC2)c1 (stereo not shown) [Example 174, 3-cyclopropyl-3-(2-((1-(2-((2,2-dimethylpropyl)(4,6-dimethylpyrimidin-2-yl)carbamoyl)-5-methoxyphenyl)piperidin-4-yl)methoxy)pyridin-4-yl)propanoic acid]"
16,96%,"COc1cc(N2CCC(COc3cc(C(CC(=O)O)C4CC4)ccn3)CC2)c(C(=O)N(CC(F)(F)F)c2ccccn2)cn1 (stereo not shown) [Example 256, 3-cyclopropyl-3-(2-((1-(2-methoxy-5-(pyridin-2-yl(2,2,2-trifluoroethyl)carbamoyl)pyridin-4-yl)piperidin-4-yl)methoxy)pyridin-4-yl)propanoic acid]"
17,97%,"COc1ccc(C(=O)N(CC(C)(F)F)c2cc(C)ccn2)c(N2CCC(COc3cc(C(CC(=O)O)C4CC4)ccn3)CC2)c1 (stereo not shown) [Example 147, 3-cyclopropyl-3-(2-((1-(2-((2,2-difluoropropyl)(4-methylpyridin-2-yl)carbamoyl)-5-methoxyphenyl)piperidin-4-yl)methoxy)pyridin-4-yl)propanoic acid]"
18,94%,"COc1ccnc(N(CC(C)C)C(=O)c2ccc(OC)cc2N2CCC(COc3cc(C(CC(=O)O)C4CC4)ccn3)CC2)c1 (stereo not shown) [Example 135, 3-cyclopropyl-3-(2-((1-(5-methoxy-2-((4-methoxypyridin-2-yl)(2-methylpropyl)carbamoyl)phenyl)piperidin-4-yl)methoxy)pyridin-4-yl)propanoic acid]"
19,85%,"Cc1cccc(N(CC(C)(C)C)C(=O)c2c(F)cc(Cl)cc2N2CCC(COc3cc(C(CC(=O)O)C4CC4)ccn3)CC2)n1 (stereo not shown) [Example 265, 3-(2-((1-(5-chloro-2-((2,2-dimethylpropyl)(6-methylpyridin-2-yl)carbamoyl)-3-fluorophenyl)piperidin-4-yl)methoxy)pyridin-4-yl)-3-cyclopropylpropanoic acid]"
